One molecule from paper PMC12350126, “A novel carboxamide bromodomain inhibitor attenuates osteoarthritis via epigenetic repression of NF-κB and MAPK signaling” (Frontiers in Immunology, 2025) can be followed below.

pKd: −log10 of the molar value.

Data set [1] has as its target T1, BRD4 (BD1 + BD2) (Homo sapiens, UniProt O60885).
T1 construct: BRD4 (BD1 + BD2); purchased BPS Bioscience
Nature of the data set: TR-FRET assay, BRD4 (BD1 + BD2). The note with it: lower signal = stronger binding. The procedure: (§1) TR-FRET assays were conducted using kits specific for BRD2 (BD1 + BD2), BRD3 (BD1 + BD2), and BRD4 (BD1 + BD2) obtained from BPS Bioscience (San Diego, CA, USA). Bromodomain ligands were diluted in water, and master mixes were prepared by combining the diluted ligands with 1× BRD Homogeneous Assay Buffer. Thawed BRD proteins were also diluted with the same buffer. For each assay, 1.5 μL of the master mix was dispensed into wells of a microplate (Labcyte, San Jose, CA, USA), followed by the addition of 5 μL of diluted BRD protein to initiate the reaction. Plates were incubated at 20–22°C for 30–60 min. Subsequently, glutathione (GSH) acceptor beads and streptavidin-conjugated donor beads (both from PerkinElmer, Waltham, MA, USA) were diluted in 1× BRD Homogeneous Detection Buffer 1. Next, 10 μL of the acceptor bead solution was added to each well and incubated at 18°C for 30 min, followed by the addition of 10 μL of donor bead solution and a further incubation at 18°C for 15–30 min. Alpha particle counts were measured using an EnVision 2105 multimode plate reader (PerkinElmer).

The target in data set [2] is T2, BRD3 BD1 (Homo sapiens, UniProt Q15059).
T2 construct: biotinylated BRD2 BD1, BRD2 BD2, BRD3 BD1; biotin (biotinylated protein); made in house; host or cells: Escherichia coli BL21(DE3)
T2 sequence (Q15059 34-140 limits assumed): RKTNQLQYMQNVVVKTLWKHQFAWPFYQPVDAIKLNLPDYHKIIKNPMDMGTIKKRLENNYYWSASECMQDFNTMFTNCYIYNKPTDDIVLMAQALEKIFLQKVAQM
The data set can be described thus: Biosensor binding kinetics assay (Octet), BRD3 BD1. As to the method: (§2) Binding kinetics were assessed using the Octet® R2 system (Sartorius, Göttingen, Germany). Superstreptavidin biosensors were loaded with biotinylated BRD2 BD1, BRD2 BD2, BRD3 BD1, BRD3 BD2, BRD4 BD1, BRD4 BD2, or biotin alone (as a negative control) in PBST buffer (phosphate-buffered saline containing 0.02% Tween 20 and 5% DMSO). The sensors were then dipped into compound solutions for 10 min. To evaluate association kinetics (kon), each sensor was exposed to serial dilutions of the protein for 180 s, followed by dipping them into PBST buffer to assess dissociation kinetics (koff). For control, a separate sensor loaded with the compound was dipped into PBST alone. Competition binding assays were performed by exposing the compound-loaded sensor to mixtures of proteins and test compounds.
(Biolayer interferometry detects binding as a change in optical thickness at a sensor tip.)

Data set [3] deals with T3, BRD2 (BD1 + BD2) (Homo sapiens, UniProt P25440).
T3 construct: kits specific for BRD2 (BD1 + BD2); purchased BPS Bioscience
T3 sequence (P25440 65-459 limits assumed): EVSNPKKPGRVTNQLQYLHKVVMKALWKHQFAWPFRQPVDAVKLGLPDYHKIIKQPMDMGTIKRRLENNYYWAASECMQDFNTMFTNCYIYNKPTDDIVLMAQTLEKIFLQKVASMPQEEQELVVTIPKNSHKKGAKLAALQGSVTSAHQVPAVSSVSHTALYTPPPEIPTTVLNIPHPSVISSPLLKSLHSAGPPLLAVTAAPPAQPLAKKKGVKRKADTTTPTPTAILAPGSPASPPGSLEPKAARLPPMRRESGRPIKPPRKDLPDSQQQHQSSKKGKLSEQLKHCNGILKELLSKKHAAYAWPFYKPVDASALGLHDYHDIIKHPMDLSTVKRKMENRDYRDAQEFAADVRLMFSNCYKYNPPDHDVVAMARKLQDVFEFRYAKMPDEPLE
Nature of the data set: TR-FRET assay, BRD2 (BD1 + BD2). The note with it: lower signal = stronger binding. As to the method: as §1
Background: TR-FRET usually uses a lanthanide donor and a delayed reading to cut background.

Data set [4] has as its system DMM-induced OA in C57BL/6J mice. The data set can be described thus: DMM-induced OA mouse model, oral administration. The class given is in vivo. As to the method: (§3) All experiments were independently performed with at least three biological replicates to ensure reproducibility. For in vivo studies, animals were randomly assigned to treatment or control groups. To create a DMM-induced OA model, DMM surgery was performed on 12-week-old male C57BL/6J mice, following a previously reported protocol ([26]). Subsequently, NCD was either orally administered or injected in mice; the NCD (50 mg/kg) was orally administered on alternate days 4 weeks after DMM, whereas IA knee injection of NCD (10 μg) was administered once a week after 4 weeks. The mouse knee joint was processed for histological analysis 10 weeks after surgery. All experiments were independently performed with at least three biological replicates to ensure reproducibility. For in vivo studies, animals were randomly assigned to treatment or control groups. For in vitro experiments, cells were plated using a randomized layout across multi-well plates to avoid positional effects and ensure unbiased treatment assignment
(§4) All histological samples were prepared independently by two researchers. Cartilage destruction was evaluated based on Safranin O staining and scored using the OA Research Association International (OARSI) grading system ([29]). Additionally, all histological samples were analyzed through osteophyte maturity scoring and subchondral bone plate (SBP) thickness. Osteophyte maturity was scored as described previously ([30]). Briefly, the scoring was as follows: 0 = none, 1 = predominantly cartilaginous, 2 = mixed cartilage and bone with active vascular invasion and endochondral ossification, 3 = predominantly bone. SBP thickness was measured to analyze subchondral bone sclerosis. All experiments were independently performed over at least three replicates. […] For each sample, measurements were performed on serial sections, and the mean value was calculated for analysis. The samples were […] by treating with 0.5 M ethylenediamine tetraacetic acid (pH 8.0) for 2 weeks. Next, mouse knee joint samples were fixed using 4% paraformaldehyde and embedded in paraffin. The paraffin-embedded samples were cut into 5-μm sections and fixed on glass slides. The tissue sections were then hydrated using a graded ethanol series, which removed paraffin and xylene. Mouse knee joint sections were immunohistochemically analyzed using anti-Mmp3 (ab52915, Abcam, Cambridge, UK), anti-Mmp13 (ab51072, Abcam), and anti-Cox2 (66351-I-Ig, ProteinTech, Rosemont, ILllinois, USA).

Data set [5] concerns the target T4, BRD2 BD1 (Homo sapiens, UniProt P25440).
T4 construct: biotinylated BRD2 BD1; biotin (biotinylated protein); made in house; host or cells: Escherichia coli BL21(DE3)
Nature of the data set: Biosensor binding kinetics assay (Octet), BRD2 BD1. The procedure:
as §2

The subject of data set [6] is liver, lungs of mice. Nature of the data set: In vivo organ histology after oral or IA administration.
Data set [7] relates to DMM-induced OA in C57BL/6J mice. The data set can be described thus: DMM-induced OA mouse model, intra-articular injection. It is filed as in vivo. The procedure: as §3, §4
[8] abbreviates: oral 50 mg/kg on alternate days from 4 weeks after DMM, 10 weeks after surgery, vs vehicle.
The mark [9] stands for this setting: IA injection 10 μg once a week from 4 weeks after DMM, 10 weeks after surgery, vs PBS.

T4 sequence (P25440 74-180 limits assumed): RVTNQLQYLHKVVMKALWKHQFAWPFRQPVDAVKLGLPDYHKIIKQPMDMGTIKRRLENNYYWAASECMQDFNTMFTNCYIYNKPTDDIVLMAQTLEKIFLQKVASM

For `CNC(=O)CC1C(=O)NCCN1Cc1ccc(-c2ccccc2-c2cccc3c2CN(C)C3=O)o1` (stereo not drawn) [NCD, N-methyl-2-(1-((5-(2-(2-methyl-1-oxoisoindolin-4-yl)phenyl)furan-2-yl)methyl)-3-oxopiperazin-2-yl)acetamide], the TR-FRET value in data set [1] is reported as over 100000 RLU. This molecule also gave a pKd in data set [2] of under 6.00. In addition, in data set [3], the TR-FRET value is recorded as 96511 RLU. For the same molecule, in data set [4] (setting [8]), the OARSI score entry is “decrease”, the Osteophyte maturity result is recorded as “decrease” and the SBP thickness result is given as “decrease”. For the same molecule, in data set [4] (oral 50 mg/kg, DMM mice), the “Expression of Mmp3, Mmp13 and Cox2 in articular cartilage (immunohistochemistry)” value is “markedly reduced expression levels”; the “NITEGE levels (aggrecan degradation neoepitope)” value is “significantly reduced”; the “Type II collagen (immunohistochemistry)” value is reported as “restored”. The negative-log Kd (pKd) in data set [5] was 7.59. The “Cytotoxicity in the liver or lungs (histological analyses)” value in data set [6] (oral and intra-articular administration) was “no apparent cytotoxicity”. The “Organ toxicity in vivo” value in data set [6] (oral or IA routes) is listed as “without causing detectable organ toxicity”. Further, in data set [7] (setting [9]), the OARSI grade result is “significant reduction”, the Osteophyte maturity result was “significant reduction” and the SBP thickness result is “significant reduction”. Moreover, in data set [7] (IA injection 10 μg, DMM mice), the “Expression of Mmp3, Mmp13 and Cox2 in knees (immunohistochemistry)” value is reported as “lower expression levels”; the NITEGE expression entry is “reduced”; the “Type II collagen levels (immunohistochemistry)” value is given as “partially preserved”.

By pKd is commonly meant the Kd on a negative log10 scale, so that one unit is a factor of ten. A lower pKd goes with a large Kd.
